Reference: ChEMBL document CHEMBL3797201, “Synthesis of N-1', N-3'-disubstituted spirohydantoins and their anticonvulsant activities in pilocarpine model of temporal lobe epilepsy” (Bioorg Med Chem Lett, 2016)
Calls of active or inactive are those of the source. No cut-off for these calls is given here.

How the values were obtained:
[1] = system: Rattus norvegicus; experiment: Anticonvulsant activity in pilocarpine-induced status epilepticus Sprague-Dawley rat model assessed as delay in motor seizure onset time at 100 mg/kg, ip administered 2 hrs prior to pilocarpine challenge; assay type: functional, organism-based
[2] = system: Rattus norvegicus; experiment: Anticonvulsant activity in pilocarpine-induced status epilepticus Sprague-Dawley rat model at 100 mg/kg, ip administered 2 hrs prior to pilocarpine challenge; assay type: functional, organism-based
[3] = system: Rattus norvegicus; experiment: Anticonvulsant activity in pilocarpine-induced status epilepticus Sprague-Dawley rat model assessed as recovered from seizure within 90 to 120 mins at 100 mg/kg, ip administered 2 hrs prior to pilocarpine challenge; assay type: functional, organism-based
[4] = system: Rattus norvegicus; experiment: Toxicity in pilocarpine-induced status epilepticus Sprague-Dawley rat model assessed as sedation at 100 mg/kg, ip administered 2 hrs prior to pilocarpine challenge; assay type: organism-based; settings: in vivo
[5] = system: Rattus norvegicus; experiment: Toxicity in pilocarpine-induced status epilepticus Sprague-Dawley rat model assessed as loss of righting reflex at 100 mg/kg, ip administered 2 hrs prior to pilocarpine challenge measured within 10 mins and upto 4 hrs; assay type: organism-based; settings: in vivo
[6] = system: Rattus norvegicus; experiment: Anticonvulsant activity in pilocarpine-induced status epilepticus Sprague-Dawley rat model assessed as motor seizure onset time at 100 mg/kg, ip administered 2 hrs prior to pilocarpine challenge (reference value: 6 mins); assay type: functional
[7] = system: Rattus norvegicus; experiment: Anticonvulsant activity in pilocarpine-induced status epilepticus Sprague-Dawley rat model assessed as survival rate at 100 mg/kg, ip administered 2 hrs prior to pilocarpine challenge (reference value: 53%); assay type: functional
[8] = system: Rattus norvegicus; experiment: Anticonvulsant activity in pilocarpine-induced status epilepticus Sprague-Dawley rat model assessed as recovered from pre-stage of motor seizue within 30 mins at 100 mg/kg, ip administered 2 hrs prior to pilocarpine challenge; assay type: functional, organism-based
[9] = system: Rattus norvegicus; experiment: Anticonvulsant activity in pilocarpine-induced status epilepticus Sprague-Dawley rat model assessed as decrease in progression of motor seizure at 100 mg/kg, ip administered 2 hrs prior to pilocarpine challenge; assay type: functional, organism-based

**Q.** CCc1ccc(N2C(=O)N(C3CC3)C3(OC(=O)c4ccccc43)C2=O)cc1 (racemic) was tested. Which Activity [1] did it give?
**A.** Active

**Q.** CCCN1C(=O)N(c2ccc(Cl)cc2)C(=O)C12OC(=O)c1ccccc12 (racemic) was tested. Which Activity [2] did it give?
**A.** Active

**Q.** Which Activity [2] does the source give for CCCN1C(=O)N(c2ccccc2CC)C(=O)C12OC(=O)c1ccccc12 (racemic) here?
**A.** Active

**Q.** Which Activity [2] does the source give for O=C1OC2(C(=O)N(c3ccc(Cl)cc3)C(=O)N2C2CC2)c2ccccc21 (racemic) here?
**A.** Active

**Q.** What does the source list for O=C1OC2(C(=O)N(c3ccc([N+](=O)[O-])cc3)C(=O)N2C2CC2)c2ccccc21 (racemic)?
**A.** Activity [2]: Active; Activity [3]: Active

**Q.** Which Activity [4] does the source give for O=C1OC2(C(=O)N(c3ccccc3)C(=O)N2C2CC2)c2ccccc21 (racemic) here?
**A.** Toxic

**Q.** What about the Activity [5] of the same compound?
**A.** Toxic

**Q.** CCCN1C(=O)N(c2ccccc2)C(=O)C12OC(=O)c1ccccc12 (racemic) was tested. Which Activity [4] did it give?
**A.** Toxic

**Q.** What about the Activity [5] of the same compound?
**A.** Toxic

**Q.** CCCN1C(=O)N(c2ccc(CC)cc2)C(=O)C12OC(=O)c1ccccc12 (racemic) was tested. Which Activity [1] did it give?
**A.** Active

**Q.** Which Time [6] does the source give for O=C1OC2(C(=O)N(c3ccc([N+](=O)[O-])cc3)C(=O)N2c2ccccc2)c2ccccc21 (racemic) here?
**A.** 104 min

**Q.** O=C1NC(=O)C(c2ccccc2)(c2ccccc2)N1 [PHENYTOIN] was tested. Which Time [6] did it give?
**A.** 12 min

**Q.** And the survival at 100 mg/kg [7]?
**A.** 67%

**Q.** CCc1cccc(CC)c1N1C(=O)N(CC)C2(OC(=O)c3ccccc32)C1=O (racemic) was tested. Which Activity [2] did it give?
**A.** Active

**Q.** How did the Activity [4] turn out when O=C1OC2(C(=O)N(c3ccccc3)C(=O)N2c2ccccc2)c2ccccc21 (racemic) was run?
**A.** Toxic

**Q.** What about the Activity [5] of the same compound?
**A.** Toxic

**Q.** With O=C1OC2(C(=O)N(c3ccc(Cl)cc3)C(=O)N2c2ccccc2)c2ccccc21 (racemic) as the compound, how does the Activity [1] read?
**A.** Active

**Q.** CCCN1C(=O)N(c2ccc([N+](=O)[O-])cc2)C(=O)C12OC(=O)c1ccccc12 (racemic) was tested. Which Activity [2] did it give?
**A.** Active

**Q.** What about the Activity [3] of the same compound?
**A.** Active

**Q.** What about the Activity [1] of the same compound?
**A.** Active

**Q.** For CCN1C(=O)N(c2ccc(OC)cc2OC)C(=O)C12OC(=O)c1ccccc12 (racemic), which Activity [8] is on record?
**A.** Active

**Q.** And the Activity [2]?
**A.** Active

**Q.** And the Activity [3]?
**A.** Active

**Q.** And the Activity [1]?
**A.** Active

**Q.** And the Activity [9]?
**A.** Active

**Q.** What does the source list for CCN1C(=O)N(c2ccc([N+](=O)[O-])cc2)C(=O)C12OC(=O)c1ccccc12 (racemic)?
**A.** Activity [2]: Active; Activity [3]: Active
